Reference: ChEMBL document CHEMBL1201862, “PubChem BioAssay data set” (2004)
Values joined by “and” are separate entries in the source; they are usually repeats but may differ in a detail not shown here. Equal entries are not always repeated.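 Assay format: 96-well plates, 48-hour exposure. At the GI50, growth is halved.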 Active and inactive are the calls of the source. Rule as the data show it: active = GI50 up to about 1.1 µM and inactive = higher.

Tests used:
Assay in all cases: growth of human tumour cells (NCI), 48 h
Malme-3M = system: Malme-3M
SK-OV-3 = system: SK-OV-3
MCF7 = system: MCF7
SF-295 = system: SF-295
A549 = system: A549
TK-10 = system: TK-10
K562 = system: K562
MDA-N = system: MDA-N
HOP-62 = system: HOP-62
HT-29 = system: HT-29
SW-620 = system: SW-620
SR = system: SR
786-0 = system: 786-0
HL-60 = system: HL-60
NCI-H23 = system: NCI-H23
SK-MEL-5 = system: SK-MEL-5
SK-MEL-2 = system: SK-MEL-2
OVCAR-3 = system: OVCAR-3
OVCAR-4 = system: OVCAR-4
HCC 2998 = system: HCC 2998
RPMI-8226 = system: RPMI-8226
HOP-92 = system: HOP-92
UACC-62 = system: UACC-62
SNB-75 = system: SNB-75
IGROV-1 = system: IGROV-1
RXF 393 = system: RXF 393
PC-3 = system: PC-3
KM12 = system: KM12
HCT-15 = system: HCT-15
LOX IMVI = system: LOX IMVI
COLO 205 = system: COLO 205
EKVX = system: EKVX
SNB-19 = system: SNB-19
HCT-116 = system: HCT-116
OVCAR-8 = system: OVCAR-8
MDA-MB-435 = system: MDA-MB-435
SN12C = system: SN12C
CCRF-CEM = system: CCRF-CEM
SF-268 = system: SF-268
SK-MEL-28 = system: SK-MEL-28
T47D = system: T47D
MOLT-4 = system: MOLT-4
SF-539 = system: SF-539
MDA-MB-231 = system: MDA-MB-231
OVCAR-5 = system: OVCAR-5
U-251 = system: U-251
NCI-H522 = system: NCI-H522
A498 = system: A498
NCI-H460 = system: NCI-H460
DU-145 = system: DU-145
ACHN = system: ACHN
NCI-H226 = system: NCI-H226
UACC-257 = system: UACC-257
CAKI-1 = system: CAKI-1
M14 = system: M14
Hs-578T = system: Hs-578T
NCI/ADR-RES = system: NCI/ADR-RES
UO-31 = system: UO-31

Measured: GI50

O=[N+]([O-])c1ccc(Cl)c2c([N+](=O)[O-])cccc12
inactive: Malme-3M 5.82 µM | SK-OV-3 2.28 µM | MCF7 4.43 µM | SF-295 > 10 µM | A549 > 10 µM | TK-10 9.57 µM | K562 4.02 µM | MDA-N 2.18 µM | HOP-62 > 10 µM | HT-29 3.26 µM | SW-620 2.91 µM | SR 3.95 µM | 786-0 3.14 µM | HL-60 2.48 µM | NCI-H23 9.27 µM | SK-MEL-5 2.33 µM | SK-MEL-2 8.34 µM | OVCAR-3 3.49 µM | OVCAR-4 6.22 µM | HCC 2998 > 10 µM | RPMI-8226 5.52 µM | HOP-92 3.96 µM | UACC-62 5.46 µM | SNB-75 5.38 µM | IGROV-1 8.02 µM | RXF 393 > 10 µM | PC-3 7.85 µM | KM12 3.2 µM | LOX IMVI 3.71 µM | COLO 205 4.57 µM | EKVX > 10 µM | SNB-19 8.51 µM | HCT-116 1.76 µM | OVCAR-8 3.5 µM | MDA-MB-435 3.1 µM | SN12C 4.56 µM | CCRF-CEM 2.36 µM | SF-268 3.87 µM | SK-MEL-28 7.93 µM | T47D 4.22 µM | MOLT-4 4.9 µM | SF-539 3.06 µM
2.77 µM: HCT-15

O=C1CC(CC(OCc2ccccc2)C(OCc2ccccc2)C(COCc2ccccc2)OCc2ccccc2)CC(=O)N1 (configuration not stated)
inactive: MDA-MB-231 8.67 µM | TK-10 > 100 µM and 81.8 µM | HT-29 4.53 µM | HOP-92 > 100 µM | T47D > 10 µM

O=P(O)(O)C=C=C1CCCCC1
inactive: Malme-3M > 100 µM | SK-OV-3 > 100 µM | OVCAR-5 > 100 µM | MCF7 > 100 µM | SF-295 > 100 µM | A549 > 100 µM | U-251 > 100 µM | NCI-H522 > 100 µM | TK-10 > 100 µM | K562 > 100 µM | MDA-N > 100 µM | HOP-62 > 100 µM | HT-29 > 100 µM | SW-620 > 100 µM | SR > 100 µM | 786-0 > 100 µM | HL-60 24.3 µM | NCI-H23 > 100 µM | A498 > 100 µM | SK-MEL-5 > 100 µM | NCI-H460 > 100 µM | SK-MEL-2 > 100 µM | OVCAR-3 > 100 µM | OVCAR-4 > 100 µM | HCC 2998 > 100 µM | HOP-92 > 100 µM | UACC-62 > 100 µM | SNB-75 > 100 µM | IGROV-1 > 100 µM | RXF 393 > 100 µM | PC-3 > 100 µM | DU-145 > 100 µM | KM12 > 100 µM | ACHN > 100 µM | LOX IMVI > 100 µM | COLO 205 > 100 µM | EKVX > 100 µM | SNB-19 > 100 µM | HCT-116 > 100 µM | OVCAR-8 > 100 µM | MDA-MB-435 > 100 µM | SN12C > 100 µM | NCI-H226 > 100 µM | SF-268 > 100 µM | UACC-257 > 100 µM | CAKI-1 > 100 µM | M14 > 100 µM | SK-MEL-28 > 100 µM | Hs-578T > 100 µM | T47D > 100 µM | SF-539 > 100 µM | NCI/ADR-RES > 100 µM
> 100 µM: HCT-15

CC(C)(C)c1ccc(O)c(C(c2ccc([N+](=O)[O-])cc2)c2cc(C(C)(C)C)ccc2O)c1
2.13 µM: HCT-15
inactive: MDA-MB-231 1.87 µM | SK-OV-3 2.11 µM | OVCAR-5 1.82 µM | MCF7 2 µM | SF-295 1.98 µM | A549 1.86 µM | U-251 2.28 µM | NCI-H522 2.11 µM | TK-10 2.53 µM | K562 2.73 µM | HOP-62 1.85 µM | HT-29 1.87 µM | SW-620 2.11 µM | SR 2.4 µM | 786-0 2.04 µM | HL-60 2.23 µM | NCI-H23 1.99 µM | A498 2.11 µM | SK-MEL-2 1.81 µM | OVCAR-3 1.79 µM | OVCAR-4 1.85 µM | HCC 2998 1.95 µM | RPMI-8226 2.37 µM | HOP-92 2.02 µM | UACC-62 1.66 µM | SNB-75 2.05 µM | IGROV-1 2.15 µM | RXF 393 2.07 µM | PC-3 1.85 µM | DU-145 2.39 µM | KM12 1.89 µM | ACHN 1.85 µM | COLO 205 2.5 µM | EKVX 1.97 µM | SNB-19 2.41 µM | HCT-116 2.43 µM | OVCAR-8 2.56 µM | MDA-MB-435 1.78 µM | SN12C 2.38 µM | CCRF-CEM 2.98 µM | UO-31 1.95 µM | NCI-H226 1.78 µM | SF-268 1.63 µM | UACC-257 1.79 µM | CAKI-1 1.51 µM | M14 1.68 µM | SK-MEL-28 1.74 µM | Hs-578T 3.61 µM | T47D 2.65 µM | MOLT-4 2.07 µM | SF-539 1.89 µM | NCI/ADR-RES 2.73 µM

CC(CN(C)C)Nc1c2ccccc2nc2cccc([N+](=O)[O-])c12 (configuration not stated)
active: NCI-H522 0.0268 µM | MDA-N 0.23 µM | HL-60 0.203 µM
